Measured values: patent publication US7732463B2, “4-(2-phenylsulfanyl-phenyl)-piperidine derivatives as serotonin reuptake inhibitors” (H. Lundbeck A/S, priority 2003, dated 2010)

Target: human 5-HT2C-VSV receptors (Homo sapiens, UniProt P28335, I156V/I160V/N158S)
Format: binding
Details: not given

Sequence of human 5-HT2C-VSV receptors (P28335 33-458 I156V/N158S/I160V limits assumed): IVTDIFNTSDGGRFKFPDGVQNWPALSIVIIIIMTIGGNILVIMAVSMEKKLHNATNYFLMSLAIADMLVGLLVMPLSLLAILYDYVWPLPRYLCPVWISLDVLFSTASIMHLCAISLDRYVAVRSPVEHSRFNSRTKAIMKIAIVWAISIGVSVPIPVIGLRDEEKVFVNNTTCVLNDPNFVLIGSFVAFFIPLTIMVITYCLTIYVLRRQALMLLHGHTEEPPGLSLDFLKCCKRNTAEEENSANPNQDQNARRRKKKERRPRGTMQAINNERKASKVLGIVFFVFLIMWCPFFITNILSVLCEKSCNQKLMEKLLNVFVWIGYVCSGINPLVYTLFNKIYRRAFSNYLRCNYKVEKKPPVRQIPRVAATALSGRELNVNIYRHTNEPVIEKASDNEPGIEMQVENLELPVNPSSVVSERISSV

SMILES	affinity to the 5HT2C receptor
Fc1cccc(Sc2ccc(Cl)cc2)c1C1CCNCC1 [3d19, 4-[2-(4-Chloro-phenylsulfanyl)-6-fluoro-phenyl]-piperidine]	good affinity
COc1ccc(Sc2ccc(C)cc2C2CCNCC2)cc1 [1i, 4-[2-(4-Methoxy-phenylsulfanyl)-5-methyl-phenyl]-piperidine]	good affinity
COc1ccc(Sc2ccc(F)cc2)c(C2CCNCC2)c1 [3c2, 4-[2-(4-Fluoro-phenylsulfanyl)-5-methoxy-phenyl]-piperidine]	good affinity
Fc1ccc(Sc2ccc(Cl)cc2F)c(C2CCNCC2)c1 [2p, 4-[2-(4-Chloro-2-fluoro-phenylsulfanyl)-5-fluoro-phenyl]-piperidine]	good affinity
COc1ccc(Sc2cc(F)ccc2C2CCNCC2)cc1 [1e, 4-[2-(4-Methoxy-phenylsulfanyl)-4-fluoro-phenyl]-piperidine]	good affinity
Fc1cc(Cl)ccc1Sc1cccc(F)c1C1CCNCC1 [3d15, 4-[2-(4-Chloro-2-fluoro-phenylsulfanyl)-6-fluoro-phenyl]-piperidine]	good affinity
Fc1cccc(Sc2cccc(Cl)c2)c1C1CCNCC1 [3d10, 4-[2-(3-Chloro-phenylsulfanyl)-6-fluoro-phenyl]-piperidine]	good affinity
Fc1ccc(Sc2cccc(F)c2C2CCNCC2)cc1 [3d27, 4-[2-(4-Fluoro-phenylsulfanyl)-6-fluoro-phenyl]-piperidine]	good affinity
COc1ccc(Sc2ccc(F)cc2C2CCNCC2)cc1 [2b, 4-[2-(4-Methoxy-phenylsulfanyl)-5-fluoro-phenyl]-piperidine]	good affinity
Fc1cccc(Sc2cccc(F)c2C2CCNCC2)c1 [3d11, 4-[2-(3-Fluoro-phenylsulfanyl)-6-fluoro-phenyl]-piperidine]	good affinity
Fc1ccccc1Sc1cccc(F)c1C1CCNCC1 [3d12, 4-[2-(2-Fluoro-phenylsulfanyl)-6-fluoro-phenyl]-piperidine]	good affinity
COc1ccc(Sc2ccccc2C2CCNCC2)cc1 [1b, 4-[2-(4-Methoxy-phenylsulfanyl)-phenyl]-piperidine]	good affinity
Cc1ccc(Sc2ccc(Cl)cc2)c(C2CCNCC2)c1 [2g, 4-[2-(4-Chloro-phenylsulfanyl)-5-methyl-phenyl]-piperidine]	good affinity
COc1cc(Sc2cccc(F)c2C2CCNCC2)ccc1F [3d13, 4-[2-(4-Fluoro-3-methoxy-phenylsulfanyl)-6-fluoro-phenyl]-piperidine]	good affinity
Fc1ccc(Sc2cccc(F)c2C2CCNCC2)c(F)c1 [3d24, 4-[2-(2,4-Difluoro-phenylsulfanyl)-6-fluoro-phenyl]-piperidine]	good affinity
COc1ccc(Sc2cccc(F)c2C2CCNCC2)cc1 [3d26, 4-[2-(4-Methoxy-phenylsulfanyl)-6-fluoro-phenyl]-piperidine]	good affinity
Cc1ccc(Sc2ccc(F)cc2C)c(C2CCNCC2)c1 [1h, 4-[2-(4-Fluoro-2-methyl-phenylsulfanyl)-5-methyl-phenyl]-piperidine]	good affinity
Fc1ccc(C2CCNCC2)c(Sc2ccc(Cl)cc2)c1 [1d, 4-[2-(4-Chloro-phenylsulfanyl)-4-fluoro-phenyl]-piperidine]	good affinity
Cc1ccc(Sc2cccc(F)c2C2CCNCC2)cc1F [3d7, 4-[2-(3-Fluoro-4-methyl-phenylsulfanyl)-6-fluoro-phenyl]-piperidine]	good affinity
Cc1ccc(Sc2ccc(C)cc2C2CCNCC2)cc1 [1f, 4-[2-(4-Methyl-phenylsulfanyl)-5-methyl-phenyl]-piperidine]	good affinity

SMILES	affinity to the 5HT2C receptor
Fc1ccc(Sc2ccccc2C2CCNCC2)c(Cl)c1 [3a2, 4-[2-(2-Chloro-4-fluoro-phenylsulfanyl)-phenyl]-piperidine]	good affinity
Cc1ccc(Sc2cccc(F)c2C2CCNCC2)c(F)c1 [3d21, 4-[2-(2-Fluoro-4-methyl-phenylsulfanyl)-6-fluoro-phenyl]-piperidine]	good affinity
Fc1ccc(Sc2ccccc2C2CCNCC2)c(F)c1 [3a4, 4-[2-(2,4-Difluoro-phenylsulfanyl)-phenyl]-piperidine]	good affinity
Fc1ccc(Sc2ccc(F)cc2C2CCNCC2)c(F)c1 [2t, 4-[2-(2,4-Difluoro-phenylsulfanyl)-5-fluoro-phenyl]-piperidine]	good affinity
COc1ccc(Sc2c(F)cccc2C2CCNCC2)cc1 [2d, 4-[2-(4-Methoxy-phenylsulfanyl)-3-fluoro-phenyl]-piperidine]	good affinity
Clc1ccc(Sc2ccccc2C2CCNCC2)cc1 [2a]	good affinity
Fc1ccc(Sc2ccc(Br)cc2F)c(C2CCNCC2)c1 [2x, 4-[2-(4-Bromo-2-fluoro-phenylsulfanyl)-5-fluoro-phenyl]-piperidine]	good affinity
Fc1cccc(Sc2cccc(Cl)c2F)c1C1CCNCC1 [3d17, 4-[2-(3-Chloro-2-fluoro-phenylsulfanyl)-6-fluoro-phenyl]-piperidine]	good affinity
COc1ccc(Sc2ccc(F)cc2C2CCNCC2)c(F)c1 [2a3, 4-[2-(2-Fluoro-4-methoxy-phenylsulfanyl)-5-fluoro-phenyl]-piperidine]	good affinity
COc1ccc(Sc2cccc(F)c2C2CCNCC2)c(F)c1 [3d23, 4-[2-(2-Fluoro-4-methoxy-phenylsulfanyl)-6-fluoro-phenyl]-piperidine]	good affinity
Fc1ccc(C2CCNCC2)c(Sc2ccccc2Cl)c1 [3f2, 4-[2-(2-Chloro-phenylsulfanyl)-4-fluoro-phenyl]-piperidine]	good affinity
Fc1cccc(Sc2ccc(C(F)(F)F)cc2)c1C1CCNCC1 [3d16, 4-[2-(4-Trifluoromethyl-phenylsulfanyl)-6-fluoro-phenyl]-piperidine]	good affinity
COc1ccc(Sc2cccc(F)c2C2CCNCC2)c(Cl)c1 [3d25, 4-[2-(2-Chloro-4-methoxy-phenylsulfanyl)-6-fluoro-phenyl]-piperidine]	good affinity
Fc1ccc(Sc2cc(F)ccc2C2CCNCC2)cc1 [3f3, 4-[2-(4-Fluoro-phenylsulfanyl)-4-fluoro-phenyl]-piperidine]	good affinity
COc1ccc(Sc2cccc(F)c2C2CCNCC2)c(C)c1 [3d4, 4-[2-(4-Methoxy-2-methyl-phenylsulfanyl)-6-fluoro-phenyl]-piperidine]	good affinity
Cc1ccc(Sc2cccc(F)c2C2CCNCC2)cc1 [3d18, 4-[2-(4-Methyl-phenylsulfanyl)-6-fluoro-phenyl]-piperidine]	good affinity
Cc1ccc(Sc2ccc(F)cc2C2CCNCC2)c(F)c1 [2q, 4-[2-(2-Fluoro-4-methyl-phenylsulfanyl)-5-fluoro-phenyl]-piperidine]	good affinity
Fc1ccc(Sc2ccc(F)cc2C2CCNCC2)cc1 [2j, 4-[2-(4-Fluoro-phenylsulfanyl)-5-fluoro-phenyl]-piperidine]	good affinity
Cc1ccc(Sc2c(F)cccc2C2CCNCC2)c(C)c1 [2u, 4-[2-(2,4-Dimethyl-phenylsulfanyl)-3-fluoro-phenyl]-piperidine]	good affinity

System: hippocampal 5-HT
Details: rats, microdialysis, combined with citalopram; cited from earlier work

SMILES	increase of hippocampal 5-HT by citalopram
COc1ccc(NC(=O)c2ccc(-c3ccc(-c4nnc(C)o4)cc3C)cc2)cc1N1CCN(C)CC1 [GMC 2-29]	potentiated
